Patent US20250302846A1, “ANTIBIOTIC COMPOSITION AND METHODS OF USE THEREOF” (THE REGENTS OF THE UNIVERSITY OF COLORADO A BODY CORPORATE, priority 2022, published 2025)
Values after ≈ are worked out from the molar mass of the structure shown. Values joined by “and” are separate entries in the source; they are usually repeats but may differ in a detail not shown here. Identical values can stand only once. Like-named read-outs stand apart in the source and are kept apart here.

Assays:
[1] = test system: S. Typhimurium (SL1344); experiment: Minimum inhibitory concentration determination in broth; type: cell-based; details: for MIC50: Salmonella enterica, TYPHIMURIUM
Experimental: (§1) A, B) Dose response curves monitoring S. Typhimurium (SL1344) or E. coli (K12) growth from an OD600 of 0.01, normalized to growth in 2% DMSO under the indicated condition. Mean and SEM of at least three biological replicates performed with technical triplicates; curve fit: sigmoidal, 4P L. C-E) Checkerboard assays of S. Typhimurium SL1344 growth from an OD600 of 0.01 in LB for 18 hours with novobiocin (up to 100 μg/mL) and (C) PMB (up to 48 μM), (D) JDI (up to 150 μM), or (E) D66 (up to 150 μM). Growth was normalized to growth in 2% DMSO, with the darkest blue representing 100% growth and white representing 0%.
Minimum inhibitory concentration determination: Overnight LB-grown cultures were diluted in LB or MHB to an optical density (OD600) of 0.01 and distributed into polystyrene 96-well flat-bottom plates (Greiner, 655185). […] The final DMSO concentration was at or below 2%. Where indicated, PMB [0.5 μg/mL] was added prior to D66. Plates were grown at 37° C. with shaking and OD600 was monitored (BioTek Synergy H1 or BioTek Eon). MICs were defined as the concentration at which 95% of growth was inhibited (OD600).

[2] = test system: S. Typhimurium SL1344; experiment: Novobiocin potentiation (checkerboard) assay; type: cell-based; details: LB, 18 hours, D66 up to 150 μM, novobiocin up to 100 μg/mL
Experimental: as §1
Novobiocin potentiation assays: Overnight LB-grown cultures were diluted in LB to an optical density at 600 nm (OD600) of 0.01 and distributed into polystyrene 96-well flat-bottom plates (Greiner, 655185). […] The final DMSO concentration was at or below 2%. Plates were grown at 37° C. with shaking for 18 hours and OD600 was monitored (BioTek Synergy H1).

[3] = test system: S. Typhimurium strain SL1344; type: in vivo
Experimental: FIG. 5A-C. […] Mice were euthanized 48 hours after infection. […] Significance was determined by Mann-Whitney.
Female C57Bl/6 7-8-week-old mice were IP inoculated with S. Typhimurium strain SL1344. Six mice per cohort were IP-treated with 100 μL of vehicle (50% DMSO), 50 mg/kg of chloramphenicol, or 50 mg/kg of D66 at 10 minutes and 24 hours post-infection. Mice were euthanized at 48 hours by CO2 asphyxiation, followed by cervical dislocation. Spleen and liver were collected, homogenized in 1 mL PBS and serially diluted for plating to enumerate CFU. The experiment was performed twice independently with 7×10^3 CFU, 3×10^4 CFU respectively, as determined by plating. A ROUT test for outliers and a Mann-Whitney test for significance were performed in GraphPad Prism.

[4] = test system: Bacillus subtilis; experiment: Growth inhibition in broth (MIC95); type: cell-based
Experimental: FIG. 8A-B. D66 inhibits the growth of Gram-positive bacteria in broth. A) Dose response curves monitoring staphylococcal and B. subtills growth in the presence of D66 from an OD600 of 0.01, normalized to growth in 2% DMSO after 18 hours. Mean and SEM of at least three biological replicates performed with technical triplicates. B) Table of D66 concentrations that inhibit growth. For comparison, S. Typhimurium is included.
A) D66 quenches the fluorescent dye DiSC3 (5) in a dose-dependent manner. Data were normalized to DMSO at time 0. Relative fluorescent units (RFU). Mean and SEM of three biological replicates performed with technical triplicates. B, C) Mid-log phase S. aureus (FDA209) in LB were treated at time 0 with DMSO, gramicidin [2 μg/mL], or D66 (1x MIC95=130 μM). B) Fold change in RFU. Data are normalized to DMSO at time 0. C) Data normalized to account for the quenching effect of D66 on DiSC3 (5) observed in A. Mean and SEM of three biological replicates performed with technical triplicates. D) Bacillus subtilis expressing mNeonGreen-FtsZ at stationary phase in LB were placed on agar pads containing D66 at the indicated concentration (1x MIC95=89 μM). Confocal microscope images were taken after 15 minutes to ascertain whether D66 disrupted the septal localization of FtsZ.

[5] = test system: S. aureus FDA209; experiment: Growth curves and kill curves of mid-log phase S. aureus; type: cell-based
Experimental: FIG. 9A-B. D66 is bactericidal to mid-log phase S. aureus. A) Growth curves and B) kill-curves. Mid-log phase cultures of S. aureus FDA209 were treated at time 0 with either DMSO or the indicated concentration of D66 (1x MIC95=130 μM). Cultures were monitored for OD600 and plated for enumeration of colony forming units (CFU). Data are presented as fold change. Mean and SEM of three biological replicates performed with technical triplicates.

[6] = test system: staphylococcal biofilm; experiment: Staphylococcal biofilm formation; type: cell-based; details: 18 hours in TSB, subinhibitory concentrations
Experimental: Biofilm formation was monitored after 18 hours in TSB with subinhibitory concentrations of DMSO, rifampin (1x MIC95=0.05 μg/mL), vancomycin (1x MIC95=1 μg/mL), or D66 (1x MIC95=130 μM). A-D) Crystal violet staining for accumulated biofilm mass measured at A595. Mean and
SEM of three biological replicates performed with technical triplicates. E-F). Biofilms were stained with Syto 9 (live cells) and PI (damaged/dead cells) and imaged with confocal fluorescent microscopy. Volume of live, dead, and total cell volume was calculated (positive volume=positive voxel; 1 voxel=0.0367 μm3). Asterisks indicate P≤0.05 as determined by one-way ANOVA compared to DMSO. Mean and SDs derived from a minimum of four fields of view each from two biological replicates.

Q: Which results are given for O=C(Nc1cc(Cl)cc(Cl)c1)N1CCCN(Cc2ccccc2)CC1 [D66]?
A: growth inhibition in the presence of polymyxin B nonapeptide (PMBN) ([1]; PMBN [20 μg/mL], MHB): did not enable D66 to inhibit growth; cMIC95 in LB ([1]; S. Typhimurium (SL1344) w/PMB (0.5 ug/mL), LB): 54 µM; cMIC95 in MHB ([1]; S. Typhimurium (SL1344) w/PMB (0.5 ug/mL), MHB): 46 µM; cMIC95 in LB ([1]; S. Typhimurium (SL1344), LB): >150 µM; cMIC95 in MHB ([1]; S. Typhimurium (SL1344), MHB): >150 µM; MIC50 ([1]; S. Typhimurium (SL1344) w/PMB (0.5 ug/mL), LB, read-out: MIC50 in LB): 45 µM and 17 µg/mL; MIC50 ([1]; S. Typhimurium (SL1344) w/PMB (0.5 ug/mL), MHB, read-out: MIC50 in MHB): 40 ± 1 µM; MIC50 ([1]; S. Typhimurium (SL1344), LB, read-out: MIC50 in LB): > 150 µM and > 57 µg/mL; MIC50 ([1]; S. Typhimurium (SL1344), MHB, read-out: MIC50 in MHB): > 150 µM; potentiation of growth inhibition with novobiocin [2]: did not potentiate novobiocin; S. Typhimurium colonization of spleen and liver (tissue CFU) ([3]; C57Bl/6 mice, 50 mg/kg IP at 10 minutes and 24 hours post-inoculation, 48 hours, P<0.05 Mann-Whitney): reduced S. Typhimurium colonization in both tissues; survival and condition of infected treated mice ([3]; female, C57Bl/6, mouse, in vivo, ip, 50 mg/kg, 48 h): survived in good condition out to 48 hours; MIC [4]: 89 µM (≈ 33.7 µg/mL); killing of mid-log phase S. aureus [5]: bactericidal; staphylococcal biofilm formation [6]: inhibits staphylococcal biofilm formation
